Assay results published in patent US20250144115A1, “AMIDE COMPOUND AS POTASSIUM CHANNEL REGULATOR, AND PREPARATION THEREFOR AND USE THEREOF” (Shanghai Zhimeng Biopharma, Inc., priority 2022, published 2025).

Target: T1, KCNQ2 potassium channels (CHO-KCNQ2 cells) (Homo sapiens, UniProt O43526)
T1 construct: expressed in transfected cells; host or cells: CHO cells stably expressing KCNQ2 (G418 selection in the culture medium)
Test: Potassium ion channel opener activity test (FDSS/μCELL detection, FluxOR thallium flux)
Format: cell-based
Conditions: 8 concentrations 0.045-100 μM; for EC50: 3 replicate wells; for Emax: ratio at 180 s, read-out: Maximum agonistic rate (%)
Procedure: Example A1 Potassium Ion Channel Opener Activity Test (FDSS/μ CELL Detection)
Cell preparation: CHO-KCNQ2 cells were cultured in a 175 cm^2 culture flask, and when the cell density grew to 60˜80%, the culture medium was removed and the cells were washed once with 7 mL PBS (Phosphate Buffered Saline), and then 3 mL of 0.25% Trypsin was added for digestion. After completion of digestion, 7 mL of culture medium (90% DMEM/F12+10% FBS+500 μg/mL G418) was added to neutralize, and centrifuged at 800 rpm for 3 min; the supernatant was aspirated, then 5 mL of culture medium was added to resuspend the cells, and the cells were counted.
Cell spreading: according to the cell counting results, the density was adjusted to 3×10^4 cells/well. After standing at room temperature for 30 minutes, the cells were placed in a CO2 incubator at 37° C. overnight, and incubated for 16-18 hours to reach a cell density of about 80%.
Fluorescent dye incubation: Cell culture solution was discarded, 80 μL/well of loading buffer was added and the cells were incubated for 60 minutes at room temperature and protected from light.
Compound incubation: Loading buffer was discarded, 80 μL/well of prepared compound solution was added, and the cells were incubated for 20 min at room temperature and protected from light.
Fluorescence data acquisition: Real-time fluorescence signal recording was performed using an FDSS/μCELL instrument with an excitation wavelength of 480 nm and an emission wavelength of 540 nm, and the signal was recorded once per second. 10 seconds of the baseline was recorded, then 20 μL/well of stimulation buffer was added, and the recording was continued until the end of 180 seconds.
20 mM stock solution of compound in DMSO was prepared, 10 μL of 20 mM compound stock solution was taken into 20 μL of DMSO solution, and a 3-fold serial dilution was performed to form 8 intermediate concentrations; then the intermediate concentrations of the compounds were taken respectively into test buffer, and a 200-fold dilution was performed to obtain the final concentration to be tested, and 80 μL was taken and added to the assay plate.
The highest test concentration was 100 μM, and there was a total of 8 concentrations, i.e., 100, 33.33, 11.11, 3.70, 1.23, 0.41, 0.137, 0.045 μM, respectively, with 3 replicate wells for each concentration.
The experimental data were analyzed by Excel 2007, GraphPad Prism 5.0 software, and the ratio of 180 s was counted to calculate the agonistic effect. The agonistic effect of the compound was calculated by the following equation:
• Environment: Temperature ˜25° C. • Reagent: FluxOR™ detection kit (Invitrogen, Cat #F0017) • The experimental data in the report must meet the following criteria: Z′ Factor>0.5 2. Results: See Table 1 for details, wherein a smaller EC50 indicates a higher activity of the corresponding compound.

T1 sequence (O43526 whole entry): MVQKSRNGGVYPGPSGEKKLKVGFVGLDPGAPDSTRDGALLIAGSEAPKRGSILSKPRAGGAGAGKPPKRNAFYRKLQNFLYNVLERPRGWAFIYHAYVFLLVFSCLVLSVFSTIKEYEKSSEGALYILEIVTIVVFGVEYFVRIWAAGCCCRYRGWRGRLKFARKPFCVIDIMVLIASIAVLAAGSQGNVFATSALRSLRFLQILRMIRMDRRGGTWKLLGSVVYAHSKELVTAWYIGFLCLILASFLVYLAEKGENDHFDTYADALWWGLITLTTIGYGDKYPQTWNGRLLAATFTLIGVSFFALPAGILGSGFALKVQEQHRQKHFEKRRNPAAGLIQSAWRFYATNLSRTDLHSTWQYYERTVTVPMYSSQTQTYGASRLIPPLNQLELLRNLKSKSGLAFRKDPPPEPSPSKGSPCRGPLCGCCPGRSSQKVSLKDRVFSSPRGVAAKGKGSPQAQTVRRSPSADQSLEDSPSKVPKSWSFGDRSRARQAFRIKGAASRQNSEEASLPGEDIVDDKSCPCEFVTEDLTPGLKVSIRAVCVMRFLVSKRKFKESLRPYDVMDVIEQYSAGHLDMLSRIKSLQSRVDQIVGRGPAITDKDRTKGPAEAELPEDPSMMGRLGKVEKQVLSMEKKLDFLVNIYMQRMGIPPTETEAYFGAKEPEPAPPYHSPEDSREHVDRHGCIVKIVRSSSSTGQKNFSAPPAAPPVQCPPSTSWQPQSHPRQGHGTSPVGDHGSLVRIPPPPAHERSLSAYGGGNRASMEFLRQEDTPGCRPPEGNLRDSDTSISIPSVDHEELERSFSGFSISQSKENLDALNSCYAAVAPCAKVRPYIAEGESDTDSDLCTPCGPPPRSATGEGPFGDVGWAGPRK

SMILES | EC50 [nM] | Emax [%]
Cc1cc(N2CCCCc3cc(C(F)(F)F)ccc32)cc(C)c1NC(=O)CC1(C)CC1 [Compound 3002] | 580 | 28.1
Cc1cc(N2CCCOc3cc(C(F)(F)F)ccc32)cc(C)c1NC(=O)CC1(C)CC1 [Compound 3004] | 580 | 17.7
Cc1cc(N2CCc3sc(F)cc3C2)cc(C)c1NC(=O)CC1(C)CC1 [Compound 3005] | 110 | 46.7
Cc1cc(N2CCn3cccc3C2)cc(C)c1NC(=O)CC1(C)CC1 [Compound 3006] | 270 | 34.9
Cc1cc(N2CCCn3cccc3C2)cc(C)c1NC(=O)CC1(C)CC1 [Compound 3010] | 3700 | 35.3

Stronger by EC50, values ahead:

EC50 [nM] | Emax [%] | SMILES
86 | 45.6 | Cc1cc(N2CCc3cc(C(F)(F)F)ccc3C2)cc(C)c1NC(=O)CC1(C)CC1 [Compound 3001]
71 | 36.1 | Cc1ccc2c(c1)OCCCN2c1cc(C)c(NC(=O)CC2(C)CC2)c(C)c1 [Compound 3009]
30 | 41.5 | Cc1ccc2c(c1)CCCCN2c1cc(C)c(NC(=O)CC2(C)CC2)c(C)c1 [Compound 3007]
18 | 39.6 | Cc1cc(N2CCOc3cc(C(F)(F)F)ccc3C2)cc(C)c1NC(=O)CC1(C)CC1 [Compound 3003]
17 | 40.9 | Cc1cc(N2CCOc3cc(F)ccc3C2)cc(C)c1NC(=O)CC1(C)CC1 [Compound 3008]
4.3 | 49.4 | Cc1cc(N2CCSc3ccccc3C2)cc(C)c1NC(=O)CC1(C)CC1 [Compound 3011]
